Earlier results, collected in patent publication US9790225B2, “4-amino-3-phenylamino-6-phenylpyrazolo[3,4-d]pyrimidine derivatives, their manufacture and their use as antiviral active substances” (Scandion Oncology A/S, priority 2011, dated 2017).

Assays:
[1] = cited from earlier work
[2] = in vivo; cited from earlier work
[3] = in vivo; cited from earlier work; remark: listed apart in the source
[4] = in vivo; cited from earlier work; remark: listed apart in the source
[5] = test system: 48 rhinovirus types, coxsackie virus A21, enterovirus 70, echovirus 11; settings: Pattick et al. 1999; cited from earlier work

SMILES: CCC(=O)C(CCCCCCOc1ccc(OC)cc1Cl)C(=O)CC [arildone]
- Solubility [1]: Poor solubility
- Bioavailability [2]: low bioavailability

SMILES: Cc1cc(CCCCCOc2c(Cl)cc(C3=NCCO3)cc2Cl)on1 [WIN 54954]
- Side effects [3]: skin rash
- Metabolisation and excretion [4]: fast metabolisation and excretion

SMILES: CCOC(=O)/C=C/[C@H](C[C@@H]1CCNC1=O)NC(=O)[C@@H](CC(=O)[C@@H](NC(=O)c1cc(C)on1)C(C)C)Cc1ccc(F)cc1 [AG 7088]
- Active concentration range in cell culture [5]: nanomolar concentration range
